Laboratory results taken from patent US7732200B2, “Materials and methods for nerve grafting, selection of nerve grafts, and in vitro nerve tissue culture” (University of Florida Research Foundation, Inc., priority 2001, dated 2010).

How the values were obtained:
nerve segments = test: Dissociation culture (squash preparations) of cultured nerve segments; format: cell-based, rat; conditions: nerves cultured 2 days, 2% serum, with GM6001
[1] = tested on: MMP gelatinolytic activity; test: In situ zymography of cultured nerve explants; format: biochemical, rat; conditions: nerves cultured 2 days, 2% serum, in the presence of GM6001
Method: In situ zymography for nerve predegeneration experiments. Cryosections (10 μm) of unfixed normal and cultured nerves were mounted on slides and overlaid with reaction buffer (50 mM Tris-HCl, 150 mM NaCl, 5 mM CaCl2, 0.2 mM sodium azide, pH 7.6) containing 20 μg/ml of intramolecularly quenched, fluorescein-labeled gelatin substrate (MOLECULAR PROBES INC., Eugene, Oreg.) (Oh et al., 1999). In the control condition, the MMP inhibitor EDTA (30 mM) was included in the reaction buffer. After incubation for 24 h at 37° C., the sections were rinsed with PBS and fixed with 4% paraformaldehyde in phosphate buffer. The sections were rinsed with water and mounted using Citifluor. Fluorescein-gelatin peptides generated by gelatinolytic activity in the tissue sections were observed and photographed by epifluorescence microscopy.
The activity of MMPs is regulated by gene transcription, proenzyme activation and by the action of tissue inhibitors of metalloproteinases. The net gelatinolytic activity in nerve segments by in situ zymography was examined. Tissue sections were overlaid with quenched, fluorescein-gelatin, which is converted to fluorescent peptides by gelatinolytic activity within tissues. Constitutive gelatinolytic activity was detected in normal nerve mostly associated with Schwann cells aligned along the endoneurial basal lamina (as shown in FIGS. 17A and 17B). […]

Schwann cell cultures = test: Treatment of isolated Schwann cell cultures; format: cell-based

Q: What does the source list for CNC(=O)[C@H](Cc1c[nH]c2ccccc12)NC(=O)[C@@H](CC(=O)NO)CC(C)C [GM6001]?
A: cell viability of nerve segments (cell outgrowth) (nerve segments): no loss of cell viability; gelatinolytic activity in nerve explants [1]: nearly undetectable; toxicity to isolated Schwann cell cultures (Schwann cell cultures): very low toxicity
